The numbers were not newly measured in US20130281394A1, “Chemosensory Receptor Ligand-Based Therapies” (ELCELYX THERAPEUTICS, INC., priority 2010, published 2013), which cites them from elsewhere.

Marks after values point to notes of the source that are not given here.

In the series the target is T1, sweet receptor (Homo sapiens, UniProt Q7RTX0+Q8TE23).
T1 sequence (Q8TE23 20-839): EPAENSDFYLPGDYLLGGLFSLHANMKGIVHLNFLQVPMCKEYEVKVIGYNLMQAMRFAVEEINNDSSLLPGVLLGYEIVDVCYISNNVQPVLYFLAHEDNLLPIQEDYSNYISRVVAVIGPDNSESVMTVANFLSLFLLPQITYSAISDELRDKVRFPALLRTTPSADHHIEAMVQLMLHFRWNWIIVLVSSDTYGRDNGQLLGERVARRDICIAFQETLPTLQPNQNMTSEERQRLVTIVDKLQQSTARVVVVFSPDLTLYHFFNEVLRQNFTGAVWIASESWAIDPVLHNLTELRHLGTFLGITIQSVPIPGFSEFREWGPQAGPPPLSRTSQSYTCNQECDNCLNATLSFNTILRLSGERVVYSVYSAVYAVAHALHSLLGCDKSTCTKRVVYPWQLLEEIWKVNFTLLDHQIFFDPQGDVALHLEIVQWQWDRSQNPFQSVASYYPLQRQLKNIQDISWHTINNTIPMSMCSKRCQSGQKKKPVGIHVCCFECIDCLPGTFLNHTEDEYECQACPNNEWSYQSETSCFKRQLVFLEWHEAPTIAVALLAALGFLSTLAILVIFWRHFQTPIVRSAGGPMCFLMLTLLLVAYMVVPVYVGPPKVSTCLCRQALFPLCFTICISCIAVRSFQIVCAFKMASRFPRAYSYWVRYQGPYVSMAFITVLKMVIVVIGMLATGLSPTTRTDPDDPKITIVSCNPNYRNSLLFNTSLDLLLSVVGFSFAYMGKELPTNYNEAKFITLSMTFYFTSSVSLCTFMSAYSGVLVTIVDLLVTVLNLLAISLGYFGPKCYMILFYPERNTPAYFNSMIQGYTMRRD
T1 sequence (Q7RTX0 21-852): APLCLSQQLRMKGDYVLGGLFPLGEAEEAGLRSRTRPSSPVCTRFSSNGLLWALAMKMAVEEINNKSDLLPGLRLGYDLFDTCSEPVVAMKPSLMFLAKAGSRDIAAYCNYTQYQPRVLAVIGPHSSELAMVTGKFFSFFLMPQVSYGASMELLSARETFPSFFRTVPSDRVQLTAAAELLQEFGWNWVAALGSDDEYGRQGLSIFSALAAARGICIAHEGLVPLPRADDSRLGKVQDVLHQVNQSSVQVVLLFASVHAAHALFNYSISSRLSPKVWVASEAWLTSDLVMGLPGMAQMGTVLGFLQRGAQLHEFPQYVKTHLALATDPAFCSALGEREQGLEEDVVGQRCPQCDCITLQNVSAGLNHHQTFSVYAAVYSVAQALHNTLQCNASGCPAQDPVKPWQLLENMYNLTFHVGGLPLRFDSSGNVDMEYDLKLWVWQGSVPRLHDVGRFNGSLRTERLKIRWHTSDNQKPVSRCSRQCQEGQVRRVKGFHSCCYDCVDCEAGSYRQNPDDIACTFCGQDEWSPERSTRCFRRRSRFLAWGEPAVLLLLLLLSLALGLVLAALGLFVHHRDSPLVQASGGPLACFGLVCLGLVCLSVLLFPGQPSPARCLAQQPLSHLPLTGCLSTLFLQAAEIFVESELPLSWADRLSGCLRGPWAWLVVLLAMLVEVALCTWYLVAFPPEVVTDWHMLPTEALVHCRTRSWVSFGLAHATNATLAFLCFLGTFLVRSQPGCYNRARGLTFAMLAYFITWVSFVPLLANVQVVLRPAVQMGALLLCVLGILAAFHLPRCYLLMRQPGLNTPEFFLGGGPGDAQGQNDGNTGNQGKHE
Conditions: relative sweetness on a weight comparison basis to sucrose (= 1.0); ranges: varied with the concentration of sucrose.

With `C[C@H](CC[C@@H](O[C@@H]1O[C@H](CO[C@@H]2O[C@H](CO)[C@@H](O)[C@H](O)[C@H]2O)[C@@H](O)[C@H](O)[C@H]1O[C@@H]1O[C@H](CO)[C@@H](O)[C@H](O)[C@H]1O)C(C)(C)O)[C@H]1CC[C@@]2(C)[C@@H]3CC=C4[C@@H](CC[C@H](O[C@@H]5O[C@H](CO[C@@H]6O[C@H](CO)[C@@H](O)[C@H](O)[C@H]6O)[C@@H](O)[C@H](O)[C@H]5O)C4(C)C)[C@]3(C)[C@H](O)C[C@]12C` [Mogroside V], the Sweetness/potency was 250-425^d.

For the compound `CC1=CC[C@@H]([C@@H](C)[C@H]2CC[C@@]3(C)[C@@H]4CC[C@H]5[C@](C)(C(=O)O)[C@@H](O[C@@H]6O[C@H](CO)[C@@H](O)[C@H](O)[C@H]6O[C@@H]6O[C@H](CO)[C@@H](O)[C@H](O)[C@H]6O)CC[C@@]56C[C@@]46CC[C@]23C)OC1=O` [Abrusoside C], the Sweetness/potency is reported as 50.

Regarding `C[C@@H]1O[C@@H](O[C@H]2[C@H](Oc3cc(O)c(C(=O)CCc4ccc(O)cc4)c(O)c3)O[C@H](CO)[C@@H](O)[C@@H]2O)[C@H](O)[C@H](O)[C@H]1O` [Naringin dihydrochalcone], the Sweetness/potency is 300.

Consider Curculin, for which the Sweetness/potency is reported as 550.

Take `CC(=O)O[C@H]1C(=O)c2c(O)cc(O)cc2O[C@@H]1c1ccc(O)c(O)c1` [(2R,3R)-Dihydroquercetin 3-O-acetate]: the Sweetness/potency is recorded as 80.

Turning to `Oc1ccc([C@H]2Oc3c(c(O)cc4c3[C@H]3c5c(O)cc(O)cc5O[C@@](c5ccc(O)cc5)(O4)[C@@H]3O)[C@H](c3c(O)cc(O)c4c3O[C@H](c3ccc(O)cc3)[C@@H](O)C4)[C@H]2O)cc1` [Selligueain A], the Sweetness/potency was 35.

`CC1(C)[C@@H](O[C@H]2O[C@H](C(=O)O)[C@@H](O)[C@H](O)[C@H]2O[C@@H]2OC[C@H](O)[C@H](O)[C@H]2O)CC[C@]2(C)[C@H]3C(=O)C=C4[C@@H]5C[C@@](C)(C(=O)O)CC[C@]5(C)CC[C@@]4(C)[C@]3(C)CC[C@@H]12` [Araboglycyrrhizin]: the Sweetness/potency is 150.

As for Baiyunoside, the Sweetness/potency is reported as 500.

Turning to Rebaudioside B, the Sweetness/potency is 150.

Take Cyclocaryoside I: the Sweetness/potency is 250.

Regarding `C[C@H](CC[C@@H](O[C@@H]1O[C@H](CO)[C@@H](O)[C@H](O)[C@H]1O[C@@H]1O[C@H](CO)[C@@H](O)[C@H](O)[C@H]1O)C(C)(C)O)[C@H]1CC[C@@]2(C)[C@H]3CC=C4[C@@H](CC[C@H](O[C@@H]5O[C@H](CO[C@@H]6O[C@H](CO)[C@@H](O)[C@H](O)[C@H]6O)[C@@H](O)[C@H](O)[C@H]5O)C4(C)C)[C@]3(C)[C@H](O)C[C@]12C` [Mogroside IV], the Sweetness/potency was 233-392^d.

Take `O=C/C=C/c1ccccc1` [Trans-Cinnamaldehyde]: the Sweetness/potency is 50.

As to Rebaudioside C, the Sweetness/potency is 30.

Consider Scandenoside R6, for which the Sweetness/potency is on record as 54.

`CC[C@@H](C)C(=O)O[C@@H](C)[C@]1(O)CC[C@]2(O)[C@@H]3CC[C@H]4C[C@@H](O[C@@H]5C[C@H](O)[C@H](O[C@H]6C[C@H](OC)[C@H](O[C@H]7C[C@@H](OC)[C@H](O[C@H]8C[C@@H](OC)[C@H](O[C@@H]9O[C@H](C)[C@@H](O[C@@H]%10O[C@H](CO)[C@@H](O)[C@H](O)[C@H]%10O)[C@H](OC)[C@H]9O)[C@@H](C)O8)[C@@H](C)O7)[C@@H](C)O6)[C@@H](C)O5)CC[C@]4(C)[C@H]3C[C@@H](OC(C)=O)[C@]12C` [Telosmoside A15]: the Sweetness/potency is given as 1000.

On to `COc1ccc(C2Oc3cc(O)cc(O)c3C(=O)C2OC(C)=O)cc1O` (centres unmarked) [Dihydroquercetin 3-O-acetate 4′-methyl ether], for which the Sweetness/potency was 400.

With Cyclocarioside A, the Sweetness/potency was 200.

For the compound `C/C(=C\CO)CCC1=C(C=O)CC(OC2OCC(O)C(O)C2O)C2C(C)(CO)CCCC12C` (centres unmarked) [Gaudichaudioside A], the Sweetness/potency was 55.

Regarding `COc1ccc(CCC(=O)c2c(O)cc(O[C@@H]3O[C@H](CO)[C@@H](O)[C@H](O)[C@H]3O[C@@H]3O[C@@H](C)[C@H](O)[C@@H](O)[C@H]3O)cc2O)cc1O` [Neohesperidin dihydrochalcone], the Sweetness/potency is given as 1,000.

For the compound `C=C1C[C@@]23CC[C@H]4[C@@](C)(CCC[C@@]4(C)C(=O)O[C@@H]4O[C@H](CO)[C@@H](O)[C@H](O)[C@H]4O[C@@H]4O[C@H](CO)[C@@H](O)[C@H](O)[C@H]4O)[C@@H]2CC[C@]1(O[C@@H]1O[C@H](CO)[C@@H](O)[C@H](O)[C@H]1O[C@@H]1O[C@H](CO)[C@@H](O)[C@H](O)[C@H]1O)C3` [Rebaudioside E], the Sweetness/potency is 174.

For the compound `COc1c(O)cc2c(c1O)C(=O)[C@H](O)[C@@H](c1ccc(O)c(O)c1)O2` [(2R,3R)-2,3-Dihydro-5,7,3′,4′-tetrahydroxy-6-methoxyflavonol], the Sweetness/potency is 15.

For Periandrin II, the Sweetness/potency was 95.

On to `Oc1cc2c(cc1O)[C@@H]1c3ccc(O)c(O)c3OC[C@]1(O)C2` [Hematoxylin], for which the Sweetness/potency is given as 120.

As for `N[C@@H](C[C@@](O)(Cc1c[nH]c2ccccc12)C(=O)O)C(=O)O` [Monatin], the Sweetness/potency is on record as 1,200-1,400^d.

Regarding `CC1(C(=O)O)CCC2(C)CCC3(C)C(=CC(=O)C4C5(C)CCC(OC6OC(C(=O)O)C(O)C(O)C6OC6OCC(O)(CO)C6O)C(C)(C)C5CCC43C)C2C1` (centres unmarked) [Apioglycyrrhizin], the Sweetness/potency is recorded as 300.

For `C=C1C[C@@]23CC[C@H]4[C@@](C)(CCC[C@@]4(C)C(=O)O[C@@H]4O[C@H](CO)[C@@H](O)[C@H](O)[C@H]4O[C@@H]4O[C@H](CO)[C@@H](O)[C@H](O)[C@H]4O)[C@@H]2CC[C@]1(O[C@@H]1O[C@H](CO)[C@@H](O)[C@H](O[C@@H]2O[C@H](CO)[C@@H](O)[C@H](O)[C@H]2O)[C@H]1O[C@@H]1O[C@H](CO)[C@@H](O)[C@H](O)[C@H]1O)C3` [Rebaudioside D], the Sweetness/potency was 221.

As to `C=C(C)[C@@H]1CC=C(/C=N/O)CC1` [Perillartine], the Sweetness/potency is reported as 370.

`CC1=CC[C@@H]([C@@H](C)[C@H]2CC[C@@]3(C)[C@@H]4CC[C@H]5[C@](C)(C(=O)O)[C@@H](O[C@@H]6O[C@H](CO)[C@@H](O)[C@H](O)[C@H]6O[C@@H]6O[C@H](C(=O)O)[C@@H](O)[C@H](O)[C@H]6O)CC[C@@]56C[C@@]46CC[C@]23C)OC1=O` [Abrusoside D]: the Sweetness/potency is 75.

Consider `C/C=C/c1ccc(OC)cc1` [trans-Anethole], for which the Sweetness/potency was 13.

Consider `COC(=O)[C@H]1O[C@@H](O[C@H]2[C@H](O[C@H]3CC[C@]45C[C@]46CC[C@]4(C)[C@@H]([C@H](C)[C@@H]7CC=C(C)C(=O)O7)CC[C@@]4(C)[C@@H]6CC[C@H]5[C@]3(C)C(=O)O)O[C@H](CO)[C@@H](O)[C@@H]2O)[C@H](O)[C@@H](O)[C@@H]1O` [Abrusoside B], for which the Sweetness/potency was 100.

Regarding Pentadin, the Sweetness/potency is recorded as 500.

For `CC1(C)[C@@H](O[C@@H]2O[C@H](C(=O)O)[C@@H](O)[C@H](O)[C@H]2O[C@@H]2O[C@H](C(=O)O)[C@@H](O)[C@H](O)[C@H]2O)CC[C@]2(C=O)[C@H]3CC[C@@H]4C5=C[C@@](C)(C(=O)O)CC[C@]5(C)CC[C@@]4(C)[C@]3(C)CC[C@@H]12` [Periandrin I], the Sweetness/potency is recorded as 90.

Consider Polypodoside A, for which the Sweetness/potency is recorded as 600.

Regarding “Brazzein (QDKCKKVYENYPVSKCQLANQCNYDCKLDKHARSGECFYDEKRNLQCICDYCEY; UniProt P56552 1-54, looked up) [sweet protein from Pentadiplandra brazzeana Baillon]”, the Sweetness/potency was 2,000.

Regarding Albiziasaponin B, the Sweetness/potency is 600.
